Experimental data reported in paper PMC12621183 (Journal of Medicinal Chemistry, 2025).
“Also recorded” adds a separate entry of the source. Like-named read-outs stand apart in the source and are kept apart here.

Assays:
recombinant ABL1 kinase = recombinant ABL1 kinase (Homo sapiens, UniProt P00519); assay: ABL1 kinase assay (ADP-Glo); format: biochemical
Protocol: Kinase inhibition was assessed using luminescent ADP-Glo–based assays. […] No-enzyme and no-compound reactions served as 0% and 100% activity controls, respectively. Luminescence was quantified using a Tecan Spark plate reader, and kinase activity or inhibition was calculated relative to controls.

K562 wild-type cells [1] = assay: cells; format: cell-based; details: for apoptosis induction: K562 cells, 72-h exposure; for CC50: K562 wild-type, 72 h, Annexin V/7-AAD, read-out: LC50 (the source's name)
Protocol: (§1) K562 wild-type, K562/DOX, OCI-AML3, HaCaT and healthy B cell cytotoxicity screening. Healthy B-lymphocytes were obtained from healthy donor blood samples using density gradient centrifugation with Histopaque.
(§2) All cells were maintained at 37 °C in atmospheric conditions of 5% CO2. Cytotoxicity screening was carried out in triplicate with these cells at a cell density of 0.5 × 10^6 cells/mL. Cells were treated with test compounds at a range of concentrations to establish LC50 values. Cells were incubated with the compounds for 72 h before being harvested by centrifugation. Subsequently, cells were labeled with Annexin V and 7-AAD (bioscience) in accordance with the manufacturer’s instructions. Following staining with FITC-labeled annexin V and 7-AAD, samples were analyzed using CytExpert software on a CytoFLEX LX flow cytometer (Beckman Coulter) to determine relative levels of cell death in the sample. Prism 10 software was then used to analyze the data to obtain dose–response curves.

K562/DOX cells [2] = assay: cells; format: cell-based
Protocol: as §1, §2

HaCaT cells = format: cell-based; details: ratio of IC50 in HaCaT cells to LC50 in K562 wild-type
Protocol: HaCaT cells were seeded in a 96-well plate in DMEM at a density of 3 × 10^3 cells/well and incubated for 24 h at 37 °C in a humidified incubator with 5% CO2. The cells were then treated with a series of drug concentrations (0.1–100 μM) and incubated for a further 72 h at 37 °C. After treatment, the media in each well, including control wells, was replaced with MTT reagent (0.1 mg/well in media) and incubated for 4 h at 37 °C. Following incubation, the MTT reagent was carefully removed, and 200 μL of DMSO was added to each well to solubilize the formazan crystals. The plate was shaken for 10 min, and the optical density (OD) was measured at 570 nm using a microplate reader.

PDGFRα (D842Y) = target: T1, PDGFRα (D842Y) (Homo sapiens, UniProt P16234, D842Y); assay: PDGFRα (D842Y) Chemi-Verse kinase assay; format: biochemical; details: compared with imatinib
T1 construct: purchased Cambridge Biosciences (Chemi-Verse kinase assays)
Protocol: (§3) Reactions were set up under the supplier’s recommended conditions, with recombinant kinases (5 ng/μL final), peptide substrates, and ATP in kinase assay buffer. Test inhibitors or vehicle were added, and reactions were incubated at 30 °C for 45 min. ADP formation was quantified with ADP-Glo detection, and percent inhibition was determined relative to DMSO controls.

K562/DOX cells [3] = assay: Effect of P-gp activity on apoptosis using verapamil (K562/DOX); format: cell-based, human; details: for Fold change in LC50 (+/- verapamil): efflux factor; for effect of P-gp inhibition by verapamil on cytotoxicity: with and without verapamil
Protocol: Cells were seeded onto 96-well plates at a concentration of 0.5 × 10^6 cells/well in a final volume of 200 μL. […] After a 72-h incubation period with the test compounds, both with and without the inhibitor, apoptotic cells were evaluated using the Annexin V assay to determine the extent of apoptosis.

healthy B-lymphocytes = assay: Cytotoxicity in healthy B-lymphocytes (Annexin V/7-AAD); format: cell-based; details: concentrations up to 100 μM
Protocol: K562 wild-type, K562/DOX, OCI-AML3, HaCaT and healthy B cell cytotoxicity screening. Healthy B-lymphocytes were obtained from healthy donor blood samples using density gradient centrifugation with Histopaque. Informed consent was obtained from all human participants in this study and experiments were performed in accordance with ethical approval granted by the local research ethics committee (17/SW/0263). […]
All cells were maintained at 37 °C in atmospheric conditions of 5% CO2. […] Following staining with FITC-labeled annexin V and 7-AAD, samples were analyzed using CytExpert software on a CytoFLEX LX flow cytometer (Beckman Coulter) to determine relative levels of cell death in the sample. […]

[4] = LC-MS/MS accumulation assay in P-gp-overexpressing K562/DOX cells; format: in vitro ADME, human; details: human; K562 wild-type vs K562/DOX
Protocol: (§4) K562 wild-type and K562/DOX cells were seeded in 6-well plates at a density of 1 × 10^6 cells per well in a final volume of 2 mL and cultured for 24 h at 37 °C in a humidified incubator with 5% CO2. The cells were then treated with 50 μM of the drug and incubated for 2 h. After incubation, the cells were harvested, washed with ice-cold phosphate-buffered saline (PBS), and pelleted. Intracellular drug was extracted by lysing the cells with 400 μL of methanol, aided by sonication. The lysates were centrifuged at 7200 rcf, and the supernatant was collected for analysis by LC-MS/MS. Drug quantification was performed using an external calibration method. Stock solutions of each compound were prepared in methanol and used to generate calibration standards in methanol/DMSO (70:30, %v/v). Experimental samples were diluted in the same solvent mixture prior to analysis.
(§5) Chromatographic separation was performed on a Shimadzu Nexera XR ultrahigh-performance liquid chromatography (UHPLC) system comprising two LC-20AD pumps, a DGC degasser, a SIL-30AC autosampler, a CBM-20A controller, and a column oven. The system was fitted with an Ascentis Express C18 column (5 cm × 2.1 mm, 2.7 μm particle size). Elution was performed with a binary solvent system: eluent A, 0.1% formic acid in water; eluent B, 0.1% formic acid in methanol. The gradient program was as follows: 5% B for 0.5 min, increased to 40% B over 3.5 min, increased to 95% B over 2 min, held at 95% B for 1.5 min, then returned to 5% B at 8 min and held for 3 min for re-equilibration. The mobile phase flow rate was 0.21 mL/min. The column oven was maintained at 40 °C and the autosampler at 10 °C.
(§6) The UHPLC system was coupled to a Shimadzu 8060 triple quadrupole mass spectrometer with an electrospray ionization (ESI) source operating in positive ion mode. […] Multiple reaction monitoring (MRM) transitions (Table S2) were used for quantification with a dwell time of 100 ms per transition. Data were normalized against standards prepared using the initial drug concentration in the lysis solution. Statistical significance of differences in intracellular accumulation between drugs and cell lines was assessed using the nonparametric Mann–Whitney test (n = 6).

K562/DOX cells [5] = assay: as above; format: in vitro ADME, human; details: for increase in intracellular concentration: K562/DOX relative to K562 wild-type; for intracellular accumulation (concentration): K562/DOX, 50 μM drug, 2 h; for higher intracellular concentration relative to imatinib: within K562/DOX cells
Protocol: as §4, §5, §6

K562 wild-type cells [6] = assay: LC-MS/MS accumulation assay in K562 wild-type cells; format: in vitro ADME, human; details: 50 μM drug, 2 h
Protocol: as §4, with “analysis. […]” for “analysis.”
The UHPLC system was coupled to a Shimadzu 8060 triple quadrupole mass spectrometer with an electrospray ionization (ESI) source operating in positive ion mode. […] Multiple reaction monitoring (MRM) transitions (Table S2) were used for quantification with a dwell time of 100 ms per transition. […] Statistical significance of differences in intracellular accumulation between drugs and cell lines was assessed using the nonparametric Mann–Whitney test (n = 6).

CSF-1R = target: T2, CSF-1R (Homo sapiens, UniProt P07333); assay: CSF-1R Chemi-Verse kinase assay; format: biochemical; details: compared with imatinib
T2 construct: purchased Cambridge Biosciences (Chemi-Verse kinase assays)
Protocol: as §3

[7] = Homo sapiens, K562, 72 h, read-out: LC50, K562/DOX, 72 h, Annexin V/7-AAD

Chain of recombinant ABL1 kinase (P00519 whole entry): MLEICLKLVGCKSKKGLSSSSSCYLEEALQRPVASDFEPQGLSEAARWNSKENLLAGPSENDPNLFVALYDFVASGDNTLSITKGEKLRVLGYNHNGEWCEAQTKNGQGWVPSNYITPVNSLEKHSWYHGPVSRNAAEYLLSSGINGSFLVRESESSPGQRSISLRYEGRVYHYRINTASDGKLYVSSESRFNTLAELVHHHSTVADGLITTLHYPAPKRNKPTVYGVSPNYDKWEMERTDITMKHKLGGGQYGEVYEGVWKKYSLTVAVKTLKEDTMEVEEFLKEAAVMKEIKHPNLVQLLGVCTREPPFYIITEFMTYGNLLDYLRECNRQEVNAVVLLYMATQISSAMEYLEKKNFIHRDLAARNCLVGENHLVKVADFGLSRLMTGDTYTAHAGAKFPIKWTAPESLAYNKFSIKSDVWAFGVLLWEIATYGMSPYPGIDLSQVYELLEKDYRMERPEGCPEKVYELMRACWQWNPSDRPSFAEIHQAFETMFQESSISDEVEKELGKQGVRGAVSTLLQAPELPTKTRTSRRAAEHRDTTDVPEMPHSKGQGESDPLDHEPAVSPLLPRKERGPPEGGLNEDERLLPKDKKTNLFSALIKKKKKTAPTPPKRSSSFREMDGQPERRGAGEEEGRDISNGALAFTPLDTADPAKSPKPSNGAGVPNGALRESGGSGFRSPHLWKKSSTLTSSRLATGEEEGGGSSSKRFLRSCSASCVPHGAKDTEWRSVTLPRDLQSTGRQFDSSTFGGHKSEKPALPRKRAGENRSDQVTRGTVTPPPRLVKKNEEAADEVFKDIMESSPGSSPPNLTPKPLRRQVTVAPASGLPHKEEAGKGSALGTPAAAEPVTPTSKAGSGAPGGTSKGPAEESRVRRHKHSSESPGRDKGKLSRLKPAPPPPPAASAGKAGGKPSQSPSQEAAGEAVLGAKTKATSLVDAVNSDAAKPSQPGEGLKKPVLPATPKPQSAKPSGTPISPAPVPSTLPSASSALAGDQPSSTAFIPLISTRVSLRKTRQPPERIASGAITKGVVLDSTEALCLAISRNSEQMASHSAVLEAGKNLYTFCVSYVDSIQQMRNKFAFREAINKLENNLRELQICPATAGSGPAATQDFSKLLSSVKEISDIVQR
T2 sequence (P07333 20-972): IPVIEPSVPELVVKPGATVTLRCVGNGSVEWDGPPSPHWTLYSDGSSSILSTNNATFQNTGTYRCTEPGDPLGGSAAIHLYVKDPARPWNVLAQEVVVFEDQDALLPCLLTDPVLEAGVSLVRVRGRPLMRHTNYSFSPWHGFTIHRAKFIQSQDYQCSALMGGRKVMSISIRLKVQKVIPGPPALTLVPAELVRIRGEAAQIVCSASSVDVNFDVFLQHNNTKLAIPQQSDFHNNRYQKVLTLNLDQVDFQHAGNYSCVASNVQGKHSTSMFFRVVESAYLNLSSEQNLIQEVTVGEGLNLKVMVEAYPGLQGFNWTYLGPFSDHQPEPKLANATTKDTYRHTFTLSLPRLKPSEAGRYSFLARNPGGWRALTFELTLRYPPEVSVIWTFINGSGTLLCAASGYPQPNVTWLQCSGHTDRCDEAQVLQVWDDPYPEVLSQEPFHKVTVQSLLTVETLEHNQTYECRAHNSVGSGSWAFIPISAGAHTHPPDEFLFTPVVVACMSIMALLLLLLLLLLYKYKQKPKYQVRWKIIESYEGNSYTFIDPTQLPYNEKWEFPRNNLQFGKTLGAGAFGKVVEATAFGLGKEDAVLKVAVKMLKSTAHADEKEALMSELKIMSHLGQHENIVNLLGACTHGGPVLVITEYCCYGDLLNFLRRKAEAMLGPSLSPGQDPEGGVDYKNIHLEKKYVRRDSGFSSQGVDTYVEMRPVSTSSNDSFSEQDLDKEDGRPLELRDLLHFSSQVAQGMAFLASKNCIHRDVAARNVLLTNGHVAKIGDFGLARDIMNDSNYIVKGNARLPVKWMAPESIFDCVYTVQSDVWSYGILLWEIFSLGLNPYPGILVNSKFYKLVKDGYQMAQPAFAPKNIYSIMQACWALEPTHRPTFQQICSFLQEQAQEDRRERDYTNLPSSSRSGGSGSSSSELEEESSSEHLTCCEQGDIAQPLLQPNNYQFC
T1 sequence (P16234 24-1089 D842Y): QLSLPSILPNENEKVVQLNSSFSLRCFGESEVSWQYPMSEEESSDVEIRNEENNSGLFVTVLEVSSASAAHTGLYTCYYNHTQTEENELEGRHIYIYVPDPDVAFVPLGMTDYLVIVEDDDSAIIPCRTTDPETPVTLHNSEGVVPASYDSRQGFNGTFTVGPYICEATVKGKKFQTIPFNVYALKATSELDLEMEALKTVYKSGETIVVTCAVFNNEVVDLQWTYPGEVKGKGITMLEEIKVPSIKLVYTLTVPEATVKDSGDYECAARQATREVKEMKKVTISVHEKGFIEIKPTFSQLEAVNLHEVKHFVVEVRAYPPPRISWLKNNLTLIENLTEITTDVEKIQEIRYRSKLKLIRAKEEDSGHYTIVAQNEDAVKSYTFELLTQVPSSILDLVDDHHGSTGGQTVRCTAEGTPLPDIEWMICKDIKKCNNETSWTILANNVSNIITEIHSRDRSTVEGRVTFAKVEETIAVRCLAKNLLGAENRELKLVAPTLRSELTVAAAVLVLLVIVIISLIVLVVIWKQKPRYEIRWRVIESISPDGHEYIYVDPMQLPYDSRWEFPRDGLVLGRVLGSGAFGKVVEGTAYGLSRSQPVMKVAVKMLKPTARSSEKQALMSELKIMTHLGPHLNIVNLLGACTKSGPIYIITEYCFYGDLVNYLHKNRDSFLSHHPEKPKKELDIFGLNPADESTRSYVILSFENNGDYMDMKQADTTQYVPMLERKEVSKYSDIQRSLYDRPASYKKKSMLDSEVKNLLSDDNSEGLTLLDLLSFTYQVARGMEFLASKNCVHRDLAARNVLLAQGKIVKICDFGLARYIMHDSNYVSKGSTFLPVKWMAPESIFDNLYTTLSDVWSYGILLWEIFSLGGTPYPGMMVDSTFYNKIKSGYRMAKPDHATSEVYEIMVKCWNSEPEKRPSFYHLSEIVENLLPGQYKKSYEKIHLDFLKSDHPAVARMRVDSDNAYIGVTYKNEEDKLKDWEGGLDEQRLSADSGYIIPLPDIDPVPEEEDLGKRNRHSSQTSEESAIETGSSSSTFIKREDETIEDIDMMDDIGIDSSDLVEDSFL

Compound | %Kinase inhibition (recombinant ABL1 kinase; 10 μM, 40 min incubation) | apoptosis induction (K562 wild-type cells [1]) | CC50 (K562 wild-type cells [1]) | CC50 (K562/DOX cells [2]; K562/DOX, 72 h, Annexin V/7-AAD, read-out: LC50 (the source's name)) | inhibition at 10 µM (recombinant ABL1 kinase; 10 μM, 40 min incubation) | CC50 (K562 wild-type cells [1]; Homo sapiens, K562, 72 h) | CC50 (K562/DOX cells [2]; [7]) | ABL1 inhibition (recombinant ABL1 kinase) | Toxicity Index (IC50 HaCaT/LC50 K562) (HaCaT cells) | inhibitory activity against PDGFRα (D842Y) (PDGFRα (D842Y)) | Fold change in LC50 (+/- verapamil) (K562/DOX cells [3]) | effect of P-gp inhibition by verapamil on cytotoxicity (K562/DOX cells [3]) | toxicity in nonmalignant B-lymphocytes (healthy B-lymphocytes) | efflux ratio at 2 h, 50 μM [4] | increase in intracellular concentration (K562/DOX cells [5]) | intracellular accumulation (concentration) (K562/DOX cells [5]) | higher intracellular concentration relative to imatinib (K562/DOX cells [5]) | intracellular accumulation (concentration) (K562 wild-type cells [6]) | inhibitory activity against CSF-1R (CSF-1R) | CC50 (K562/DOX cells [2]; human, 72 h)
4-Methyl-3-((4-(pyridin-3-yl)pyrimidin-2-yl)amino)phenyl-4-((4-(pyrimidin-2-yl)piperidin-1-yl)methyl)benzamide [Compound 11] | 26.55% | induced apoptosis in a dose-dependent manner | 24.2 ± 12.2 µM | > 50 µM |  |  |  |  |  |  |  |  |  |  |  |  |  |  |  | 
Cc1ccc(NC(=O)c2ccc(CN3CCC(c4ccccc4)CC3)cc2)cc1Nc1nccc(-c2cccnc2)n1 [Compound 7] |  | inactive |  |  | 37.7% | > 50 µM | > 50 µM |  |  |  |  |  |  |  |  |  |  |  |  | 
Cc1ccc(NC(=O)c2ccc(CN3CCC(c4ccc(N)cc4)CC3)cc2)cc1Nc1nccc(-c2cccnc2)n1 [Compound 8, 4-((4-(4-Aminophenyl)piperidin-1-yl)methyl)-N-(4-methyl-3-((4-(23yridine-3-yl)pyrimidin-2-yl)amino)phenyl)benzamide] |  | induced apoptosis in a dose-dependent manner |  |  | 40% | 2.29 µM | 5.29 µM | moderate inhibition | 3.4 | broadly comparable to imatinib | 1.3 | minimal changes; also recorded: reversal of resistance was not significant | No significant toxicity; also recorded: no significant cytotoxicity | 0.98 | 2.5% | 14.49 µg/mL | approximately 2.6 fold | 14.14 µg/mL | broadly comparable to imatinib | 
Cc1ccc(NC(=O)c2ccc(CN3CCC(c4ccccn4)CC3)cc2)cc1Nc1nccc(-c2cccnc2)n1 [Compound 9] |  | induced apoptosis in a dose-dependent manner | 21.8 µM |  | 32.2% | 21.8 ± 11 µM | 20.3 ± 10.3 µM | relatively weak inhibition |  | broadly comparable to imatinib | 4.1 | reversal of resistance was not significant |  | 0.87 | 14.4% | 26.73 µg/mL | ~4.8 fold | 23.36 µg/mL | broadly comparable to imatinib | 20.3 µM
Cc1ccc(NC(=O)c2ccc(CN3CCC(c4ccncc4)CC3)cc2)cc1Nc1nccc(-c2cccnc2)n1 [Compound 10, 4-Methyl-3-((4-(pyridin-3-yl)pyrimidin-2-yl)amino)phenyl-4-((4-(pyridin-4-yl)piperidin-1-yl)methyl)benzamide] |  | inactive |  |  | 39.6% | > 50 µM | 37.5 ± 10.1 µM |  |  |  |  |  |  |  |  |  |  |  |  | 37.5 µM
Cc1ccc(NC(=O)c2ccc(CN3CCC(n4cccc4)CC3)cc2)cc1Nc1nccc(-c2cccnc2)n1 [Compound 12, 4-((4-(1H-Pyrrol-1-yl)piperidin-1-yl)methyl)-N-(4-methyl-3-((4-(pyridin-3-yl)pyrimidin-2-yl)amino)phenyl)benzamide] |  | inactive |  |  | 47.4% | > 50 µM |  |  |  |  |  |  |  |  |  |  |  |  |  | 
Cc1ccc(NC(=O)c2ccc(CN3CCC(n4ccnc4)CC3)cc2)cc1Nc1nccc(-c2cccnc2)n1 [Compound 13, 4-((4-(1H-Imidazol-1-yl)piperidin-1-yl)methyl)-N-(4-methyl-3-((4-(pyridin-3-yl)pyrimidin-2-yl)amino)phenyl)benzamide] |  | induced apoptosis in a dose-dependent manner |  |  | 47.1% | 18.2 ± 1.9 µM | 32.5 ± 14.5 µM |  |  |  | 1.9 | minimal changes; also recorded: reversal of resistance was not significant |  |  |  |  |  |  |  | 
Cc1ccc(NC(=O)c2ccc(CN3CCC(n4cnnc4)CC3)cc2)cc1Nc1nccc(-c2cccnc2)n1 [Compound 14, 4-((4-(4H-1,2,4-Triazol-4-yl)piperidin-1-yl)methyl)-N-(4-methyl-3-((4-(pyridin-3-yl)pyrimidin-2-yl)amino)phenyl)benzamide] |  | inactive |  |  | 36.1% | > 50 µM | > 50 µM |  |  |  |  |  |  |  |  |  |  |  |  | 
